Assay results from PubChem BioAssay (NCI).
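Assay format: 96-well plates, 48-hour exposure. GI50: concentration for 50% inhibition of growth. TGI: concentration producing complete growth inhibition.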

What was measured:
Assay in all cases: DTP human tumour cell line panel, 48 h
HOP-92 NSCLC = system: HOP-92 NSCLC
M14 melanoma = system: M14 melanoma
NCI-H460 lung = system: NCI-H460 lung
SF-539 CNS = system: SF-539 CNS
SK-MEL-5 melanoma = system: SK-MEL-5 melanoma
SK-OV-3 ovarian = system: SK-OV-3 ovarian
SW-620 colon = system: SW-620 colon
TK-10 renal = system: TK-10 renal
UACC-257 melanoma = system: UACC-257 melanoma
HT29 colon = system: HT29 colon

Cn1cc(-c2cnc3ccc(NC(=O)Nc4ccc(F)c(Br)c4)cc3n2)cn1
GI50 (HOP-92 NSCLC): 1600 nM
TGI (HOP-92 NSCLC): 4.41 µM
GI50 (M14 melanoma): 1570 nM
TGI (M14 melanoma): 3.14 µM
GI50 (NCI-H460 lung): 1740 nM
TGI (NCI-H460 lung): 3.77 µM
GI50 (SF-539 CNS): 1750 nM
TGI (SF-539 CNS): 3.4 µM
GI50 (SK-MEL-5 melanoma): 1630 nM
TGI (SK-MEL-5 melanoma): 3.03 µM
GI50 (SK-OV-3 ovarian): 2240 nM
TGI (SK-OV-3 ovarian): 5.99 µM
GI50 (SW-620 colon): 1850 nM
TGI (SW-620 colon): 3.83 µM
GI50 (TK-10 renal): 2090 nM
TGI (TK-10 renal): 5.5 µM
GI50 (UACC-257 melanoma): 1920 nM
TGI (UACC-257 melanoma): 4.57 µM

O=C(O)CCCCC(CCSCc1ccccc1)SCc1ccccc1 (stereo not drawn)
GI50 (HOP-92 NSCLC): 29300 nM
TGI (HOP-92 NSCLC): > 81.6 µM
GI50 (HT29 colon): 65.3 µM
TGI (HT29 colon): > 100 µM
GI50 (M14 melanoma): 55400 nM
TGI (M14 melanoma): > 100 µM
GI50 (NCI-H460 lung): 33400 nM
TGI (NCI-H460 lung): > 100 µM
GI50 (SF-539 CNS): 66500 nM
TGI (SF-539 CNS): > 100 µM
GI50 (SK-MEL-5 melanoma): 53500 nM
TGI (SK-MEL-5 melanoma): > 100 µM
GI50 (SK-OV-3 ovarian): > 88700 nM
TGI (SK-OV-3 ovarian): > 100 µM
GI50 (SW-620 colon): > 70000 nM
TGI (SW-620 colon): > 100 µM
GI50 (TK-10 renal): > 73400 nM
TGI (TK-10 renal): > 100 µM
GI50 (UACC-257 melanoma): > 67100 nM
TGI (UACC-257 melanoma): > 100 µM

CCOc1cccc(/C=N/NC(=O)c2ccccc2Nc2ccnc(C(F)(F)F)c2)c1O
GI50 (HOP-92 NSCLC): 246 nM
TGI (HOP-92 NSCLC): 19.7 µM
GI50 (HT29 colon): 3.79 µM
TGI (HT29 colon): > 100 µM
GI50 (M14 melanoma): 661 nM
TGI (M14 melanoma): 2.91 µM
GI50 (NCI-H460 lung): 272 nM
TGI (NCI-H460 lung): 7.05 µM
GI50 (SF-539 CNS): 501 nM
TGI (SF-539 CNS): 6.33 µM
GI50 (SK-MEL-5 melanoma): 500 nM
TGI (SK-MEL-5 melanoma): 4.91 µM
GI50 (SK-OV-3 ovarian): 676 nM
TGI (SK-OV-3 ovarian): 40.5 µM
GI50 (SW-620 colon): 1230 nM
TGI (SW-620 colon): > 100 µM
GI50 (TK-10 renal): 567 nM
TGI (TK-10 renal): > 100 µM
GI50 (UACC-257 melanoma): 693 nM
TGI (UACC-257 melanoma): 47.6 µM

Cc1nc2cccc([N+](=O)[O-])c2c(NCCCN(C)C)c1C
TGI (HOP-92 NSCLC): > 100 µM
TGI (HT29 colon): 55.3 µM
TGI (M14 melanoma): > 100 µM
TGI (NCI-H460 lung): > 59.6 µM
TGI (SF-539 CNS): > 100 µM
TGI (SK-MEL-5 melanoma): > 100 µM
TGI (SK-OV-3 ovarian): > 100 µM
TGI (SW-620 colon): > 100 µM
TGI (TK-10 renal): > 55.1 µM
TGI (UACC-257 melanoma): 57.3 µM

O=C(O)Cn1ccc(=O)c2ccc([N+](=O)[O-])cc21
TGI (HT29 colon): > 100 µM
TGI (M14 melanoma): > 100 µM
TGI (NCI-H460 lung): > 100 µM
TGI (SF-539 CNS): > 100 µM
TGI (SK-MEL-5 melanoma): > 100 µM
TGI (SK-OV-3 ovarian): > 100 µM
TGI (SW-620 colon): > 100 µM
TGI (TK-10 renal): > 100 µM
TGI (UACC-257 melanoma): > 100 µM

O=C1NNC=Nc2ccc(cc2)S(=O)(=O)c2ccc(cc2)N=CNNC1=O
TGI (HOP-92 NSCLC): > 100 µM
TGI (HT29 colon): > 100 µM
TGI (M14 melanoma): > 100 µM
TGI (NCI-H460 lung): > 100 µM
TGI (SF-539 CNS): > 100 µM
TGI (SK-MEL-5 melanoma): > 100 µM
TGI (SK-OV-3 ovarian): > 100 µM
TGI (SW-620 colon): > 100 µM
TGI (TK-10 renal): > 100 µM
TGI (UACC-257 melanoma): > 100 µM

CN(C(=O)C12C3C4C1C1C2C3C41C(=O)C(C)(C)C)C(C)(C)C (stereo not drawn)
TGI (HT29 colon): > 100 µM
TGI (M14 melanoma): > 100 µM
TGI (SF-539 CNS): > 100 µM
TGI (SK-MEL-5 melanoma): > 100 µM
TGI (SK-OV-3 ovarian): > 100 µM
TGI (SW-620 colon): > 100 µM
TGI (TK-10 renal): > 100 µM
TGI (UACC-257 melanoma): > 100 µM

N#CC(C(=N/O)/C(=N/O)C(C#N)c1ccc(Cl)cc1)c1ccc(Cl)cc1 (stereo not drawn)
TGI (HOP-92 NSCLC): > 100 µM
TGI (HT29 colon): > 100 µM
TGI (M14 melanoma): > 100 µM
TGI (NCI-H460 lung): > 100 µM
TGI (SF-539 CNS): > 100 µM
TGI (SK-OV-3 ovarian): > 100 µM
TGI (SW-620 colon): > 100 µM
TGI (TK-10 renal): > 100 µM
TGI (UACC-257 melanoma): > 100 µM

CCCCNC1=C(C(=O)OCC)C(=O)CO1
TGI (HT29 colon): > 100 µM
TGI (M14 melanoma): > 100 µM
TGI (NCI-H460 lung): > 100 µM
TGI (SF-539 CNS): > 100 µM
TGI (SK-MEL-5 melanoma): > 100 µM
TGI (SK-OV-3 ovarian): > 100 µM
TGI (SW-620 colon): > 100 µM
TGI (TK-10 renal): > 100 µM
TGI (UACC-257 melanoma): > 100 µM
